The source made the active and inactive calls. No rule for the calls is given here.
Each molecule was assayed against Chaperone protein DnaK (Escherichia coli (strain K12)) (UniProt P0A6Y8) (assay: binders of DnaK substrate-binding domain, biophysical, NMR, chaperone (AID 1033)). Details: Purified DnaK SBD, NMR ligand binding.
Chain of Chaperone protein DnaK (Escherichia coli (strain K12)) (P0A6Y8 whole entry, looked up, the tested form may be a part): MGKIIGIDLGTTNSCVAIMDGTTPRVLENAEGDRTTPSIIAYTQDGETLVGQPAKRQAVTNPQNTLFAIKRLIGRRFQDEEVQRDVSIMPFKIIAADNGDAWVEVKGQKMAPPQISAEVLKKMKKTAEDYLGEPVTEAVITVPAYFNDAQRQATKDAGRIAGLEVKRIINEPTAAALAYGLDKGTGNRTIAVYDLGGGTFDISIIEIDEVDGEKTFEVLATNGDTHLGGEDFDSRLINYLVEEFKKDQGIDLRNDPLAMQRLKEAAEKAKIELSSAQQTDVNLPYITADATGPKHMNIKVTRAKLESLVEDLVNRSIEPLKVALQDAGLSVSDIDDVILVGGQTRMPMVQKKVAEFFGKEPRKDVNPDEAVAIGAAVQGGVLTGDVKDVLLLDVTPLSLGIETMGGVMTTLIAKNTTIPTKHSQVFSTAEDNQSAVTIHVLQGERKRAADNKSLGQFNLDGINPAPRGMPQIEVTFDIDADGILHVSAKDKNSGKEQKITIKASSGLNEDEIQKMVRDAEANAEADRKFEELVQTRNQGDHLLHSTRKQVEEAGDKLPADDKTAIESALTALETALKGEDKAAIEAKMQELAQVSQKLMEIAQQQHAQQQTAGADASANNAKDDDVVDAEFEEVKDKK

Compound	Kd
S=c1[nH]nc(-c2cccnc2)n1C1CCCCC1	> 4 mM (inactive)
C=CCNC(=O)c1nn2cccnc2c1Cl	> 4 mM (inactive)
CN(C)S(=O)(=O)NCc1ccc2c(c1)OCO2	> 4 mM (inactive)
COc1ccccc1NC(=O)c1ccc(Br)o1	> 4 mM (inactive)
Cc1cc2c(N)cccc2nn1	> 4 mM (inactive)
Oc1cc(O)c2c(c1)O[C@H](c1ccc(O)c(O)c1)[C@@H](O)C2	> 4 mM (inactive)
O=C(c1ccccc1)c1ccccc1C(=O)N1CCOCC1	> 4 mM (inactive)
Cc1ccn(S(=O)(=O)c2ccc(C(C)(C)C)cc2)n1	> 4 mM (inactive)
COc1ccc2c(c1)OC/C(=C/c1ccc(OC)c(OC)c1)C2=O	> 4 mM (inactive)
Cc1nnc(NCCN2CCOCC2)[nH]c1=O	> 4 mM (inactive)
Cc1cc(SCCF)n2ncnc2n1	> 4 mM (inactive)
Cc1ccccc1CSc1nnc(C)n1N	> 4 mM (inactive)
CCOC(=O)Cn1cnc2sc3c(c2c1=O)CCC3	> 4 mM (inactive)
Cc1cc(C)n(CC(=O)O)n1	> 4 mM (inactive)
O=C(Cc1ccc(F)cc1)Nc1ncccn1	> 4 mM (inactive)
COc1ccccc1NC(=O)/C=N/O	> 4 mM (inactive)
COc1c(C)c2c(c(O)c1C/C=C(\C)CCC(=O)O)C(=O)OC2	> 4 mM (inactive)
O=c1[nH]nnc2sc3c(c12)CCCC3	> 4 mM (inactive)
O=C(Nn1c(=S)[nH]c2ccccc2c1=O)c1ccncc1	> 4 mM (inactive)
Cn1[nH]c(C(F)(F)F)cc1=O	> 4 mM (inactive)
COc1ccc(Cl)cc1NC(=O)C(N)=O	> 4 mM (inactive)
CC(=O)Nc1ccc2c(c1)C(=O)N(C1CCCCC1)C2=O	> 4 mM (inactive)
Cc1cc(O)cc(=O)o1	> 4 mM (inactive)

Compound	Kd
CC(C)(O)[C@@H]1[C@H]2OC(=O)[C@@H]1[C@]1(O)C[C@H]3O[C@]34C(=O)O[C@H]2[C@]14C	> 4 mM (inactive)
O=c1oc(-c2ccccc2)nc2c1cnn2-c1ccccc1	> 4 mM (inactive)
Cc1sc2nc[nH]c(=S)c2c1C	> 4 mM (inactive)
OCC1Cc2ccccc2N1 (stereo not given)	> 4 mM (inactive)
O=c1cc(-c2ccc(O)cc2)oc2cc(O)cc(O)c12	> 4 mM (inactive)
Cc1ccn(S(=O)(=O)c2ccc(F)cc2)n1	> 4 mM (inactive)
O=C1C2CCCCC2C(=O)N1c1ccc(O)cc1 (stereo not given)	> 4 mM (inactive)
CS(=O)(=O)Nc1cc2c3c(c1)CCN3C(=O)CC2	> 4 mM (inactive)
Nc1cc(=O)[nH]c(=O)n1-c1ccccc1	> 4 mM (inactive)
COc1ccccc1/C=C\C(=O)O	> 4 mM (inactive)
Cc1nc2ccccc2c(=O)n1NC(=O)Nc1ccccc1	> 4 mM (inactive)
Cc1nc(-c2cc(C(=O)O)no2)cs1	> 4 mM (inactive)
O=c1ccc2ccccc2o1	> 4 mM (inactive)
COc1nc(-c2ccccc2)ccc1-c1noc(C)n1	> 4 mM (inactive)
CC(C)(O)CC[C@@H](O)[C@](C)(O)C1CC[C@@]2(O)C3=CC(=O)C4C[C@@H](O)[C@@H](O)C[C@]4(C)C3CC[C@]12C (stereo not given in full)	> 4 mM (inactive)
CC(=O)c1ccc[nH]1	> 4 mM (inactive)
Cc1c(C(=O)NCc2ccccn2)oc2ccccc12	> 4 mM (inactive)
Nc1ccccc1-c1nc2ccccc2[nH]1	> 4 mM (inactive)
CSCCNC(C)=O	> 4 mM (inactive)
COc1ccc2c(c1OC)C(=O)N(c1ncn[nH]1)C2	> 4 mM (inactive)
CC(=O)OC1CCC2(O)CC1(C)CCC1C2CC1(C)C (stereo not given)	> 4 mM (inactive)
C=C[C@H]1CN2CC[C@H]1C[C@H]2[C@H](O)c1ccnc2ccccc12	> 4 mM (inactive)
CC(=O)Nc1cccc(-c2n[nH]c(=S)n2C)c1	> 4 mM (inactive)

Compound	Kd
COC(=O)CSc1n[nH]c(N)n1	> 4 mM (inactive)
C/C=C(/C)C(=O)O[C@@H]1[C@H](OC(C)=O)[C@@]2(CO)C(CC1(C)C)C1=CCC3[C@@]4(C)CC[C@H](O[C@@H]5O[C@H](C(=O)O)[C@@H](O[C@@H]6O[C@H](CO)[C@@H](O)[C@H](O)[C@H]6O)[C@H](O)[C@H]5O[C@@H]5O[C@H](CO)[C@@H](O)[C@H](O)[C@H]5O)[C@](C)(CO)C4CC[C@@]3(C)[C@]1(C)C[C@H]2O (stereo not given in full)	> 4 mM (inactive)
Cc1cc2ncc(C(=O)Nc3ccccc3)c(C)n2n1	> 4 mM (inactive)
Cc1cc(S(=O)(=O)N2CCOCC2)ccc1F	> 4 mM (inactive)
COc1cc2nc[nH]c(=O)c2cc1OC	> 4 mM (inactive)
Cc1[nH]c2ccccc2c1CN(C)C	> 4 mM (inactive)
CC(=O)n1c(N)nc2ccccc21	> 4 mM (inactive)
Cn1c(NCc2ccco2)nc2ccccc21	> 4 mM (inactive)
c1csc(-c2nn[nH]n2)c1	> 4 mM (inactive)
COc1cc2c(cc1OC)[C@@H]1C(=O)c3ccc(OC)c(CC=C(C)C)c3O[C@@H]1CO2	> 4 mM (inactive)
COc1cnn(Cc2ccccc2)c(=O)c1Cl	> 4 mM (inactive)
Nc1cc(N)nc(SCc2ccccc2)n1	> 4 mM (inactive)
COc1ccc([C@@H](C)C(=O)c2ccc(O)cc2O)cc1	> 4 mM (inactive)
Clc1ccc(-n2ccnc2)nn1	> 4 mM (inactive)
O=C(O)Cn1nc(-c2ccccc2)c2ccccc2c1=O	> 4 mM (inactive)
Cc1nc2nc(Cc3ccccc3)[nH]n2c(=O)c1Cl	> 4 mM (inactive)
C=C[C@H]1CN2CC[C@H]1C[C@@H]2[C@H](O)c1ccnc2ccccc12	> 4 mM (inactive)
O=C(O)C1=C[C@@H](O)[C@@H](O)[C@H](O)C1	> 4 mM (inactive)
CC1(C)Cn2c(nnc2-c2ccccc2)S1	> 4 mM (inactive)
O=c1n(-c2cccc(Cl)c2)c(=O)n2n1CCC2	> 4 mM (inactive)
Cc1cc2nc(SCC(=O)O)nc(C)c2cc1C	> 4 mM (inactive)
CC(=O)NC1=C(N(C)C)C(=O)c2ccccc2C1=O	> 4 mM (inactive)
O=C(CSC1=NCCS1)N1CCc2ccccc21	> 4 mM (inactive)

Compound	Kd
O=C(NCc1n[nH]c(=O)c2ccccc12)C1CC1	> 4 mM (inactive)
Nc1ccc(F)cc1F	> 4 mM (inactive)
COc1cc(N)ncn1	> 4 mM (inactive)
O=C(Nc1ccc(Cl)cn1)c1cnn2cccnc12	> 4 mM (inactive)
Nc1ccc(CCC(=O)O)cc1	> 4 mM (inactive)
Cc1cc(NC(=O)CCCn2cnc([N+](=O)[O-])n2)no1	> 4 mM (inactive)
OC[C@@H]1CCCN2CCCC[C@H]12	> 4 mM (inactive)
O=C1N=c2ccccc2=C1c1[nH]c(=S)[nH]c1O	> 4 mM (inactive)
NC(=O)CC1Nc2cccc3cccc(c23)NC1=O (stereo not given)	> 4 mM (inactive)
Nc1nc(SCc2ccc3c(c2)OCCO3)n[nH]1	> 4 mM (inactive)
CC(=O)Nc1ccc(NC(=O)/C=C\C(=O)O)cc1	> 4 mM (inactive)
Nc1ccc(Cc2ccncc2)cc1	> 4 mM (inactive)
Cc1ccc(S(=O)(=O)CC(=O)N2CCCC2)cc1	> 4 mM (inactive)
CS(=O)(=O)N1CCC(C(=O)NC2CCCC2)CC1	> 4 mM (inactive)
CC1CN=C(Nc2ccccc2)S1 (stereo not given)	> 4 mM (inactive)
Cc1[nH]c(=O)[nH]c(=O)c1N1CCOCC1	> 4 mM (inactive)
O=C(O[C@@H]1Cc2c(O)cc(O)cc2O[C@@H]1c1ccc(O)c(O)c1)c1cc(O)c(O)c(O)c1	> 4 mM (inactive)
CC(=O)Nc1nc(-c2cccs2)cs1	> 4 mM (inactive)
COc1ccc(C)cc1-n1c(-c2ccncc2)n[nH]c1=S	> 4 mM (inactive)
O=C(O)c1ccc(-n2cncn2)cc1	> 4 mM (inactive)
O=C(Cc1c(F)cccc1Cl)Nc1ccncc1	> 4 mM (inactive)
O=S1(=O)CCC(NCc2ccccc2)C1 (stereo not given)	> 4 mM (inactive)
CC(C)CCCC(C)C1CCC2C3CC(=O)[C@H]4C[C@@H](O)CC[C@]4(C)C3CC[C@]12C (stereo not given in full)	> 4 mM (inactive)

Compound	Kd
NC(=O)CSc1nc2ncnc(N)c2[nH]1	> 4 mM (inactive)
O=C(c1ncc[nH]1)c1ccccc1C(=O)N1CCOCC1	> 4 mM (inactive)
C[C@@H]1O[C@@H](O[C@H]2C[C@@H](O)[C@]3(CO)C4C(CC[C@]3(O)C2)[C@@]2(O)CC[C@H](C3=CC(=O)OC3)[C@@]2(C)C[C@H]4O)[C@H](O)[C@H](O)[C@H]1O (stereo not given in full)	> 4 mM (inactive)
O=C(NC1=NCCS1)c1csc2ccccc12	> 4 mM (inactive)
CCSc1nc(C)c(CC)c(C)c1C(N)=O	> 4 mM (inactive)
O=c1[nH]c2sc3c(c2c2nncn12)CCCC3	> 4 mM (inactive)
Nc1nc2[nH]c(=O)c(=O)[nH]c2c(=O)[nH]1	> 4 mM (inactive)
O=C(O)c1ccc2occc2c1	> 4 mM (inactive)
CC(C)(OC(=O)c1ccccc1)[C@@H]1Cc2cc3ccc(=O)oc3cc2O1	> 4 mM (inactive)
CC(=O)Nc1ccc2c(c1)CCCC2=O	> 4 mM (inactive)
C=CC(C1=CC(=O)C(OC)=CC1=O)c1ccc(O)cc1 (stereo not given)	> 4 mM (inactive)
CC(=O)N1CCn2c3c(c(=O)c4cc(C)ccc42)CCC31 (stereo not given)	> 4 mM (inactive)
N[C@@H](Cc1cc(I)c(Oc2cc(I)c(O)c(I)c2)c(I)c1)C(=O)O	> 4 mM (inactive)
COC(=O)c1cc(C)on1	> 4 mM (inactive)
c1ccc(CN2CCC3(CC2)Nc2ccccc2CO3)cc1	> 4 mM (inactive)
Nc1c(N2CCCC2)cnn(-c2ccccc2)c1=O	> 4 mM (inactive)
CCN1CCn2c1nc(N1CCOCC1)nc2=O	> 4 mM (inactive)
COc1ccc2c(c1OC)C(=O)OC2[C@H]1c2c(cc3c(c2OC)OCO3)CCN1C (stereo not given in full)	> 4 mM (inactive)
CCOC(=O)Cn1cnc2c1c(=O)[nH]c(=O)n2C	> 4 mM (inactive)
Fc1ccc2onc(C3CCNCC3)c2c1	> 4 mM (inactive)
C[N+](C)(C)CC(=O)[O-]	> 4 mM (inactive)
O=C(Nc1ccccc1N1CCCC1)c1cccnc1	> 4 mM (inactive)
NC(=S)NC(=O)CN1C(=O)c2ccccc2C1=O	> 4 mM (inactive)
